Experimental data reported in patent US12415832B2, “B-catenin/B-cell Lymphoma 9 protein-protein interaction inhibiting peptidomimetics” (University of South Florida, priority 2019, dated 2025).
Read-outs that look alike come from different tables or passages of the source.

What was measured:
β-catenin/BCL9 PPI [1] = target: T1, β-catenin/BCL9 PPI (Homo sapiens, UniProt P35222); test: AlphaScreen competitive inhibition assay of β-catenin/BCL9 PPI; format: binding; conditions: AlphaScreen, mean ± SD; for IC50: 5 nM biotinylated BCL9, 40 nM His6-tagged FL-β-catenin; for Ki: Ki derived from IC50 by method of Nikolovska-Coleska et al.
T1 construct: 40 nM His6-tagged FL-β-catenin
T1 sequence (P35222 1-781): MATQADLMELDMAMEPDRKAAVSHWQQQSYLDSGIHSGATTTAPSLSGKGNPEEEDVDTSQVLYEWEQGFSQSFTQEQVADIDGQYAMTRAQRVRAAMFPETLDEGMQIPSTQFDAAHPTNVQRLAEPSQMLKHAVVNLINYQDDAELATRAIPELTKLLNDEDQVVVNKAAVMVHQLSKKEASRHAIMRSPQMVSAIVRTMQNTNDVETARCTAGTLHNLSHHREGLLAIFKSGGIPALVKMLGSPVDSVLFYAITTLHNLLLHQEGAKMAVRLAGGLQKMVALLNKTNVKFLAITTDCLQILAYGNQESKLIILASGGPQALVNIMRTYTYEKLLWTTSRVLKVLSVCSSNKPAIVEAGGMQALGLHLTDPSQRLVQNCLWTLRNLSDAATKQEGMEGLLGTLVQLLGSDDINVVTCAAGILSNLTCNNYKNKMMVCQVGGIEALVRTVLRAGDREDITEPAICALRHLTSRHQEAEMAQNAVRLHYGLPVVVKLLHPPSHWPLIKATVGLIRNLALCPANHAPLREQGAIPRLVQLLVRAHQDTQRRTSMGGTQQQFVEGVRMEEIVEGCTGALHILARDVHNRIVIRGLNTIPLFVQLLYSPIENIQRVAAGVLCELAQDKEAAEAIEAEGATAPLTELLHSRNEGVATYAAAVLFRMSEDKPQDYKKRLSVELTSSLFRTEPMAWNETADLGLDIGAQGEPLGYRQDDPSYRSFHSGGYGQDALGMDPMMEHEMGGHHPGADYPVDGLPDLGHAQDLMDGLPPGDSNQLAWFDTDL
Description: For the competitive inhibition assays of β-catenin/BCL9 PPI, the negative control (equivalent to 0% inhibition) refers to 5.0 nM biotinylated BCL9, 40 nM His6-tagged FL-β-catenin, and 10 μg/mL of donor and acceptor beads in a final volume of 25 μL of assay buffer, but no tested inhibitor present. The positive control (equivalent to 100% inhibition) refers to 5.0 nM biotinylated BCL9 and 10 μg/mL of donor and acceptor beads in a final volume of 25 μL of assay buffer. For the β-catenin/BCL9 assay, 5 nM biotinylated BCL9 and 40 nM His6-tagged FL-β-catenin were incubated in assay buffer at 4° C. for 30 min. Different concentrations of the tested inhibitor were added and incubated in 20 μL of assay buffer at 4° C. for another 1 h. All of the above assay plates were covered and gently mixed on an orbital shaker. The donor and acceptor beads were then added to the plates to a final concentration of 10 μg/mL in 25 μL of assay buffer. The mixture was incubated for 1 h at 4° C. before detection. The IC50 value was determined by nonlinear least-squares analysis of GraphPad Prism 5.0. The Ki values were derived from the IC50 values using a method reported by Nikolovska-Coleska et al. The assays were conducted under the conditions reported by Nikolovska-Coleska et al.'s equation for determining the Ki values. All of the experiments were performed in triplicate. The results were expressed as mean±standard deviation.

β-catenin/BCL9 PPI [2] = test: Co-immunoprecipitation in HCT116 cells; format: cell-based; conditions: 24 h
Description: β-Catenin signaling hyperactive HCT116 cancer cells at […] were treated with different concentrations of the inhibitor for 24 h. Cells were then lysed in buffer containing 50 mM Tris, pH 7.4, 150 mM NaCl, 1% Nonidet […], 2 mM EDTA, and protease inhibitors. The cell lysates were then preadsorbed to A/G plus agarose (sc-2003, Santa Cruz Biotechnology) at 4° C. for 1 h. Preadsorbed lysates were incubated with a specific primary antibody against […] (610153, BD Biosciences) overnight at 4° C. A/G plus agarose was then added to the lysate mixture and incubated for 3 h. The beads were washed four times with the lysis buffer at 4° C. The bound protein was eluted by boiling in the SDS sample buffer and loaded onto 8% SDS polyacrylamide gel for electrophoretic analysis. Separated proteins were transferred onto nitrocellulose membranes for immunoblot analysis. The antibodies against BCL9 (ab37305, Abcam), β-catenin (610153, BD Biosciences), and […] (sc-55529, Santa Cruz Biotechnology, Inc.) were incubated with the membranes, respectively. IRDye 680LT goat anti mouse IgG (827-11080, LiCOR) and IRDye 800CW goat anti rabbit IgG (926-32211, LiCOR) were used as the secondary antibodies. The images were detected by the Odyssey Infrared Imaging System (LiCOR). Experiments were performed in duplicate.

β-catenin = target: T2, β-catenin (Homo sapiens, UniProt P35222); test: FP assay, binding of peptides with β-catenin (Kd); conditions: for Kd: fluorescence polarization, 50 nM FITC labeled peptide, 1×PBS
T2 sequence (P35222 1-781): T1 sequence (P35222 1-781)

A549 cell = format: cell-based; conditions: 72 h
[3] = test system: Wnt/β-catenin signaling transactivation (TOPFlash); test: Wnt-responsive TOPFlash luciferase reporter assay in SW480 cells; conditions: for IC50: read-out: TOPFlash luciferase IC50 (estimated), 24 h
Description: Wnt-specific TOPFlash/FOPFlash luciferase reporter assays were used to evaluate the effects of these compounds on β-catenin-dependent transcription. For the TOPFlash reporter construct, the firefly luciferase reporter gene was placed downstream of three wild-type Tcf binding sites. For the FOPFlash reporter construct, the firefly luciferase reporter gene was place downstream of three mutant Tcf binding sites. The high expression of firefly luciferase in TOPFlash assays was controlled by tandem Tcf binding sites. The renilla luciferase reporter construct (pCMV-RL) was used as the internal control to normalize luciferase reporter signals and eliminate systematic errors such as cell viability, transfection effect, etc.
SW480 cells were co-transfected with 60 ng of the TOPFlash or FOPFlash firefly luciferase reporter gene and 40 ng of renilla luciferase pCMV-RL normalization reporter. Cells were cultured in DMEM and 10% FBS at 37° C. for 24 h, and different concentrations of inhibitors or DMSO were added. After 24 h, the luciferase reporter activity was measured using the Dual-Glo system (E2940, Promega). Normalized luciferase activity in response to the treatment with inhibitors was compared with that obtained from the cells treated with DMSO. Experiments were performed in triplicate.

SW480 cell = format: cell-based; conditions: 72 h
Description: Colorectal cancer cell lines SW480 were seeded in 96-well plates at 5×10^3 cells/well, maintained overnight at 37° C., and incubated in the presence of inhibitors at various concentrations. Cell viability was monitored after 72 h using a freshly prepared mixture of one-part phenazine methosulfate (PMS, Sigma) solution (0.92 mg/mL) and 19 parts MTs agent (3-(4,5-dimethylthiazol-2-yl)-5-(3-carboxymethoxyphenyl)-2-(4-sulfophenyl)-2H-tetrazolium, inner salt, Promega) solution (2 mg/mL). Cells were incubated in 10 μL of this solution at 37° C. for 3 h, and A490 was measured. The effect of each compound is expressed as the concentration required to reduce A490 by 50% (IC50) relative to vehicle-treated cells. Experiments were performed in triplicate and repeated for three times.

Molecule: CCC(C)[C@@H](CN(CC(=O)N[C@@H](CC(C)C)CN(CC(=O)N[C@@H](CC(C)C)CN(CC(N)=O)S(=O)(=O)Cc1ccccc1)S(=O)(=O)CC(C)C)S(C)(=O)=O)NC(=O)CN(C[C@H](CCCNC(=N)N)NC(=O)CN(C[C@H](CC(C)C)NC(=O)CN(C[C@@H](NC(=O)CN(C[C@H](CC(C)C)NC(=O)CN(C[C@H](CCCNC(=N)N)NC(=O)CN(C[C@H](C)NC(=O)CN(C[C@H](CCC(=O)O)NC(C)=O)S(=O)(=O)CCN)S(C)(=O)=O)S(C)(=O)=O)S(=O)(=O)CCN)C(C)O)S(=O)(=O)CC(C)C)S(=O)(=O)CCN)S(=O)(=O)CC(C)C (some centres unmarked) [Peptide 4]
- IC50 (β-catenin/BCL9 PPI [1]): 1.1 ± 0.14 µM
- Ki (β-catenin/BCL9 PPI [1]): 0.98 ± 0.11 µM
- disruption of β-catenin/BCL9 PPI in cells (co-IP) (β-catenin/BCL9 PPI [2]): disrupted the β-catenin/BCL9 PPI in a dose-dependent manner
- decrease in binding affinity relative to 2 (β-catenin; Ala substitution): about 1.5 fold
- Kd (β-catenin): 0.82 µM
- IC50 (A549 cell): 43.2 ± 5.6 µM
- IC50 [3]: 20.6 µM
- IC50 (SW480 cell): 16.4 ± 4.4 µM

Molecule: CCC(C)[C@@H](CN(CC(=O)N[C@@H](CC(C)C)CN(CC(=O)N[C@@H](CC(C)C)CN(CC(N)=O)S(=O)(=O)Cc1ccccc1)S(=O)(=O)CC(C)C)S(C)(=O)=O)NC(=O)CN(C[C@H](CCCNC(=N)N)NC(=O)CN(C[C@H](CC(C)C)NC(=O)CN(C[C@@H](NC(=O)CN(C[C@H](CC(C)C)NC(=O)CN(C[C@H](CCCNC(=N)N)NC(=O)CN(C[C@H](CCCNC(=N)N)NC(=O)CN(C[C@H](CCC(=O)O)NC(C)=O)S(=O)(=O)CCN)S(C)(=O)=O)S(C)(=O)=O)S(=O)(=O)CCN)C(C)O)S(=O)(=O)CC(C)C)S(=O)(=O)CCN)S(=O)(=O)CC(C)C (some centres unmarked) [Peptide 2]
- IC50 (β-catenin/BCL9 PPI [1]): 0.74 µM
- Ki (β-catenin/BCL9 PPI [1]): 0.64 µM
- Kd (β-catenin): 0.43 µM
- IC50 (A549 cell): 39.9 ± 4.75 µM
- IC50 [3]: 35.4 µM
- IC50 (SW480 cell): 12.5 ± 2.86 µM

Molecule: Ac-SQEQLEHRERSLQTLRDIQRMLF-NH2 [Peptide 1, reference compound]
- IC50 (β-catenin/BCL9 PPI [1]): 1.28 µM
- Ki (β-catenin/BCL9 PPI [1]): 1.13 µM
- Kd (β-catenin): 0.97 µM
- IC50 (A549 cell): > 200 µM
- TOPFlash luciferase activity, result in words [3]: did not show any activity
- IC50 (SW480 cell; SW480 cell, hyperactive β-catenin signaling, read-out: MTS IC50 ± SD): > 200 µM
